# Source: patent US11014896B2, “TRPA1 and TRPV4 inhibitors and methods of using the same for organ-specific inflammation and itch” (Duke University, priority 2014, dated 2021)
# Entries after “also recorded” stand apart in the source; their conditions may differ.
# Assays:
# human TRPV2 = target: T1, human TRPV2 (Homo sapiens, UniProt Q9Y5S1); experiment: Ca2+ signal in N2a cells transfected with human TRPV2; format: cell-based; conditions: stimulation with hypotonicity (260 mosmol/L)
# T1 construct: expressed in transfected cells; host or cells: N2a cells
# T1 sequence (Q9Y5S1 1-764): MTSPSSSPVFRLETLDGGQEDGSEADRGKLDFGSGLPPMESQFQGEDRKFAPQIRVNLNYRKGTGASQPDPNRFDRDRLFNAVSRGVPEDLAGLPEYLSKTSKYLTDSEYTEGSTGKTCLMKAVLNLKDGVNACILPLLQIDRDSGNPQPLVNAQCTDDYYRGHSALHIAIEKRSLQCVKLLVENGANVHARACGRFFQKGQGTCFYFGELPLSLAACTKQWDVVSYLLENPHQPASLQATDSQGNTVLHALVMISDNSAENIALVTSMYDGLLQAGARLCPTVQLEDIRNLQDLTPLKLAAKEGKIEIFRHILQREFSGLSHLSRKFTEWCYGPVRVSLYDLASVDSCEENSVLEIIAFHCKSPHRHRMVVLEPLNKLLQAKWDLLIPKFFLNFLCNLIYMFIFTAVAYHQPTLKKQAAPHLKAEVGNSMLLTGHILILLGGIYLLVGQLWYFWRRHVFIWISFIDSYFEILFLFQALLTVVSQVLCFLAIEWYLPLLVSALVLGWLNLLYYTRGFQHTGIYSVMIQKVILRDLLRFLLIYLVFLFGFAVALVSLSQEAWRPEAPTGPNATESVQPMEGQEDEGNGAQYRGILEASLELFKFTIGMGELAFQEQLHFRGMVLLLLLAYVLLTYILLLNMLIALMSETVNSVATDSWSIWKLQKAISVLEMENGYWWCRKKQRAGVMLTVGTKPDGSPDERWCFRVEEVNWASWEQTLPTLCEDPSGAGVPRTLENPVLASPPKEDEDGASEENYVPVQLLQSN
# Experimental: Compounds were tested for their effect on TRPV1, TRPV2, and TRPV3. Methods were similar to those described in Example 15. Briefly, N2a cells were transfected with human TRPV1, TRPV2, or TRPV3. eGFP-transfection was used as control. For specific stimulation of TRPV1, 5 μM capsaicin was used. For stimulation of TRPV2, hypotonicity (260 mosmol/L) was used, based on previous reports of TRPV2 being osmotically responsive. N2a cells were not responsive to hypotonicity, and neither were control-transfected cells. For TRPV3-expressing cells, camphor (20% of a commercially available stock solution) was used. […] Stimulation and control protocols were applied as for TRPA1-expressing N2a cells as detailed above in Example 15.
# [1] = UVB-induced nocifensive behavior after topical GSK205 (Hargreaves' test, von Frey hair); format: in vivo, mouse
# Experimental: Behavioral tests were performed to evaluate the decrease in withdrawal thresholds in response to mechanical von Frey hair or thermal stimuli applied to hind paws. […]. These withdrawal thresholds were ascertained before and after UV exposure. Mice were exposed using a Bio Rad Gel Doc 2000 UV transilluminator (302 nm) for 5 minutes with an exposure of 600 mJ/cm^2, 3-5 days after the last application of tamoxifen/oil.
# GSK205 topical treatment: A viscous solution of 68% EtOH/5% glycerol plus 1 mM or 5 mM GSK205 (none for control) was applied to hindpaws by rubbing in 20 μL, applied at time-points 1 hour and again 10 min before UV exposure.
# Behavioral tests were performed to evaluate the decrease in withdrawal thresholds in response to mechanical or thermal stimuli applied to hind paws. These withdrawal thresholds were ascertained before and after UVB exposure. Mice were confined by plexi-glass enclosures on top of 25×26 cm Bio Rad Gel Doc 2000 UV transilluminator (302 nm), and otherwise allowed to openly explore this environment. UV-exposure lasted for 5 minutes with an exposure of 600 mJ/cm^2.
# Hindpaw mechanical withdrawal thresholds were determined by the automated von Frey hair method, using a 0.5 mm diameter stainless steel filament, part of an automated plantar touch stimulator (Ugo Basile, Modena, Italy). Relevant detail included pre-test acclimatization in a quiet room for 30 min, conducting the test at the same time of day and blinded observers. The stimulus was delivered to the hindpaw, automatically discontinued upon withdrawal, and its intensity recorded automatically. 6-8 trials per animal were conducted, with equal exposure of both hindpaws, leading to an average withdrawal threshold. Results are reported as […], which was calculated by subtracting post-treatment from pre-treatment measurements, expressed as % or relative to 1.0.
# Hindpaw thermal (hot) withdrawal thresholds were determined by the well-established Hargreaves' method, using an infra-red thermal stimulation device that delivers the stimulus from underneath the hindpaw combined with automatic shut-off upon withdrawal (Ugo Basile). Stimulation and measurements were conducted as described for von Frey hair testing. A cutoff of 20 sec was set to prevent tissue damage.
# ET1 = ET1 secretion by non-stimulated 1° MK (ELISA); format: cell-based, mouse
# [2] = system: primary mouse keratinocytes (1° MK); experiment: UVB-evoked Ca++ signaling in primary mouse keratinocytes (fluo-4 imaging); format: cell-based
# Experimental: Ca++ imaging of 1° MK was conducted following routine procedures. For UVB stimulation, a customized device was built. The system comprised a printed circuit board for electrical interconnects and mechanical support and an ultraviolet light-emitting diode (UV LED).
# The operating wavelength was 295 nm (FIG. 2A), with a full-width half-max of 12 nm. The optical power was 500 mW. The focal point was aimed at the plane of the upper surface of the quartz coverslip, which was used to minimize UV absorption along the optical path towards the cells (FIG. 2A-FIG. 2C). The optical intensity at the focal point was estimated to be 150 mW/mm^2.
# Ca++ imaging of mouse 1° MK in response to chemical activation of TRPV4 was conducted after loading with 2 μM fura2-AM, following a ratiometric Ca2+ imaging protocol with 340/380 nm […] for dual excitation. Ratios of emissions were acquired at 0.5 Hz. ΔR/R0 was determined as the fraction of the increase of a given ratio over baseline ratio, divided by baseline ratio. For stimulation of cells with UVB, where fura-2 was not suitable because of the proximity of stimulation with 340/380 nm and 295 nm, 2 μM fluo4-AM was used instead. Ca++ imaging was carried out at 488 nm excitation, acquisition of emissions at 0.5 Hz, expressed as ΔF/F0. In the custom-built UV optical system, UV LEDs were capped with a ball lens, a transparent optical window in the shape of a hemispherical lens (FIG. 2B). The LED output optical beam focused at 15-20 mm from the lens, with a spot diameter of approximately 1.5-2.0 mm (FIG. 2C). […] The thermal equilibration stage was set for physiological temperature.
# IL-1β = IL-1β secretion by UVB-exposed 1° MK (ELISA); format: cell-based, mouse; conditions: 5 μM GSK205
# Experimental: Before UV irradiation, culture media was replaced with PBS. The cells were then irradiated at a dose of 50 mJ/cm^2 with UVB. 24 hours later, supernatants were assayed using IL-1β ELISA (R&D Systems, Minneapolis, Minn.).
SMILES,Ca2+ transience on TRPV2 stimulation (human TRPV2),"delay in thermal sensitivity after UVB ([1]; 1 mM GSK205 topical, WT mice)","thermally-evoked nocifensive behavior (Hargreaves' test) after UVB ([1]; 5 mM GSK205 topical, 60′ and 10′ pre-exposure, WT mice)","nocifensive behavior after UVB in Trpv4−/− mice vs. vehicle (off-target effects) ([1]; 5 mM GSK205 topical, Trpv4−/− mice)","sensitivity to von Frey hair mechanical stimulation after UVB ([1]; topical GSK205, WT mice)",ET1 secretion into supernatant (relative ET1 concentration) (ET1),UVB-evoked Ca++ signaling (ΔF/F0) ([2]; GSK205 20 μM),"ET1-augmented, UVB-induced Ca++ transients ([2]; UVB and ET1 co-exposure)",UVB-induced increase in IL-1β secretion (IL-1β)
CN(CCc1ccc(Nc2nc(-c3ccccc3)cs2)cc1)Cc1ccccc1 [Compound 16-8],not affected,,,,,,,,
CN(CCc1ccc(Nc2nc(-c3cccnc3)cs2)cc1)Cc1ccccc1 [GSK205],,~24 h,sustained attenuation of thermally-evoked nocifensive behavior; also recorded: significant attenuation of thermal allodynia,did not show any inter-group differences; also recorded: lack of off-target effects,significantly reduced sensitivity,significant down-regulation,very similar response to that of Trpv4−/− 1° MK; also recorded: strongly down-regulated; also recorded: significant attenuation,greatly diminished,completely eliminated; also recorded: prevention of increase in IL-1β secretion
